Measurements: PubChem BioAssay AID1918930 (Molecular Pharmacology Branch, DTP, NCI, 2023)
Calls of active or inactive are those of the source. How the source made its calls: active means viability on the fitted dose curve at most 10% of control; inactive means the rest.

System: 233499-124-R-J3-PDC complex spheroid viability, % test/control
Experiment: Anticancer human tumor 233499-124-R-J3-PDC patient-derived colon adenocarcinoma cell line growth inhibition
Conditions: for IC50: curve of first compound; for viability, T/C: stronger effect = lower value
Method in brief: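 Multicellular complex spheroids of tumor cells with human endothelial cells (HUVEC) and mesenchymal stem cells; the LSD1 inhibitor iadademstat was combined with standard-of-care or investigational agents. Top concentration at or near clinical Cmax, half-log dilutions; final DMSO ≤0.25%.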

[1] = second compound 0.1 µM, first compound 0.0316 µM
[2] = second compound 0.1 µM, first compound 0.1 µM
[3] = second compound 0.316 µM, first compound 0.0316 µM
[4] = second compound 0.316 µM, first compound 0.1 µM
[5] = second compound 1 µM, first compound 0.0316 µM
[6] = second compound 1 µM, first compound 0.1 µM
[7] = second compound 3.16 µM, first compound 0.0316 µM
[8] = second compound 3.16 µM, first compound 0.1 µM
[9] = second compound 10 µM, first compound 0.0316 µM
[10] = second compound 10 µM, first compound 0.1 µM
[11] = second compound 0.1 µM, first compound 0.00949 µM
[12] = second compound 0.1 µM, first compound 0.03 µM
[13] = second compound 0.1 µM, first compound 0.0949 µM
[14] = second compound 0.1 µM, first compound 0.3 µM
[15] = second compound 0.1 µM, first compound 0.949 µM
[16] = second compound 0.1 µM, first compound 3 µM
[17] = second compound 0.316 µM, first compound 0.00949 µM
[18] = second compound 0.316 µM, first compound 0.03 µM
[19] = second compound 0.316 µM, first compound 0.0949 µM
[20] = second compound 0.316 µM, first compound 0.3 µM
[21] = second compound 0.316 µM, first compound 0.949 µM
[22] = second compound 0.316 µM, first compound 3 µM
[23] = second compound 1 µM, first compound 0.00949 µM
[24] = second compound 1 µM, first compound 0.03 µM
[25] = second compound 1 µM, first compound 0.0949 µM
[26] = second compound 1 µM, first compound 0.3 µM
[27] = second compound 1 µM, first compound 0.949 µM
[28] = second compound 1 µM, first compound 3 µM
[29] = second compound 3.16 µM, first compound 0.00949 µM
[30] = second compound 3.16 µM, first compound 0.03 µM
[31] = second compound 3.16 µM, first compound 0.0949 µM
[32] = second compound 3.16 µM, first compound 0.3 µM
[33] = second compound 3.16 µM, first compound 0.949 µM
[34] = second compound 3.16 µM, first compound 3 µM
[35] = second compound 10 µM, first compound 0.00949 µM
[36] = second compound 10 µM, first compound 0.03 µM
[37] = second compound 10 µM, first compound 0.0949 µM
[38] = second compound 10 µM, first compound 0.3 µM
[39] = second compound 10 µM, first compound 0.949 µM
[40] = second compound 10 µM, first compound 3 µM
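Wherever IC50 is given: spheroids exposed to agents for one week before readout.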
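Wherever viability, T/C is given: spheroids exposed to agents for one week before readout.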

CC1(C)CCC(CN2CCN(c3ccc(C(=O)NS(=O)(=O)c4ccc(NCC5CCOCC5)c([N+](=O)[O-])c4)c(Oc4cnc5[nH]ccc5c4)c3)CC2)=C(c2ccc(Cl)cc2)C1 + NC1CCC(NC2CC2c2ccccc2)CC1
6.46 µM: IC50 (second compound 0.316 µM)
9.01 µM: IC50 (second compound 1 µM)
7.29 µM: IC50 (second compound 10 µM)
7.56 µM: IC50 (second compound 0.1 µM)
inactive: viability, T/C [1] 119% | viability, T/C [2] 127% | viability, T/C (second compound 0.1 µM, first compound 0.316 µM) 132% | viability, T/C (second compound 0.1 µM, first compound 1 µM) 116% | viability, T/C (second compound 0.1 µM, first compound 3.16 µM) 143% | viability, T/C (second compound 0.1 µM, first compound 10 µM) 25.2% | viability, T/C [3] 111% | viability, T/C [4] 109% | viability, T/C (second compound 0.316 µM, first compound 0.316 µM) 114% | viability, T/C (second compound 0.316 µM, first compound 1 µM) 105% | viability, T/C (second compound 0.316 µM, first compound 3.16 µM) 132% | viability, T/C (second compound 0.316 µM, first compound 10 µM) 10.5% | viability, T/C [5] 95.7% | viability, T/C [6] 91.2% | viability, T/C (second compound 1 µM, first compound 0.316 µM) 97.8% | viability, T/C (second compound 1 µM, first compound 1 µM) 104% | viability, T/C (second compound 1 µM, first compound 3.16 µM) 118% | viability, T/C (second compound 1 µM, first compound 10 µM) 44.8% | viability, T/C [7] 88.8% | viability, T/C [8] 99.8% | viability, T/C (second compound 3.16 µM, first compound 0.316 µM) 83% | viability, T/C (second compound 3.16 µM, first compound 1 µM) 98.9% | viability, T/C (second compound 3.16 µM, first compound 3.16 µM) 96.6% | viability, T/C (second compound 3.16 µM, first compound 10 µM) 36% | viability, T/C [9] 87.4% | viability, T/C [10] 86.5% | viability, T/C (second compound 10 µM, first compound 0.316 µM) 85.2% | viability, T/C (second compound 10 µM, first compound 1 µM) 93.1% | viability, T/C (second compound 10 µM, first compound 3.16 µM) 101% | viability, T/C (second compound 10 µM, first compound 10 µM) 34.5%
7.55 µM: IC50 (second compound 3.16 µM)

CCN(c1cc(-c2ccc(CN3CCOCC3)cc2)cc(C(=O)NCc2c(C)cc(C)[nH]c2=O)c1C)C1CCOCC1 + NC1CCC(NC2CC2c2ccccc2)CC1
inactive: viability, T/C [11] 99.9% | viability, T/C [12] 117% | outcome [13] | viability, T/C [14] 121% | viability, T/C [15] 101% | viability, T/C [16] 126% | viability, T/C [17] 101% | viability, T/C [18] 110% | viability, T/C [19] 113% | viability, T/C [20] 102% | viability, T/C [21] 118% | viability, T/C [22] 135% | viability, T/C [23] 80.9% | viability, T/C [24] 77.9% | viability, T/C [25] 80.4% | viability, T/C [26] 96.2% | viability, T/C [27] 88.5% | viability, T/C [28] 122% | viability, T/C [29] 75.5% | viability, T/C [30] 95.2% | viability, T/C [31] 85.8% | viability, T/C [32] 87.4% | viability, T/C [33] 76.2% | viability, T/C [34] 104% | viability, T/C [35] 86% | viability, T/C [36] 68% | viability, T/C [37] 69.4% | viability, T/C [38] 74.9% | viability, T/C [39] 83.5% | viability, T/C [40] 90.2%
> 3 µM: IC50 (second compound 0.1 µM) | IC50 (second compound 0.316 µM) | IC50 (second compound 1 µM) | IC50 (second compound 3.16 µM) | IC50 (second compound 10 µM)

Cn1ncnc1C1c2n[nH]c(=O)c3cc(F)cc(c23)NC1c1ccc(F)cc1 (stereo not given) + NC1CCC(NC2CC2c2ccccc2)CC1
> 0.1 µM: IC50 (second compound 0.1 µM) | IC50 (second compound 0.316 µM) | IC50 (second compound 1 µM) | IC50 (second compound 3.16 µM) | IC50 (second compound 10 µM)
inactive: viability, T/C (second compound 0.1 µM, first compound 0.000316 µM) 103% | viability, T/C (second compound 0.1 µM, first compound 0.001 µM) 99.2% | viability, T/C (second compound 0.1 µM, first compound 0.00316 µM) 94.4% | viability, T/C (second compound 0.1 µM, first compound 0.01 µM) 104% | viability, T/C [1] 96.3% | viability, T/C [2] 77.8% | viability, T/C (second compound 0.316 µM, first compound 0.000316 µM) 113% | viability, T/C (second compound 0.316 µM, first compound 0.001 µM) 110% | viability, T/C (second compound 0.316 µM, first compound 0.00316 µM) 100% | viability, T/C (second compound 0.316 µM, first compound 0.01 µM) 102% | viability, T/C [3] 106% | viability, T/C [4] 110% | viability, T/C (second compound 1 µM, first compound 0.000316 µM) 83.8% | viability, T/C (second compound 1 µM, first compound 0.001 µM) 87.1% | viability, T/C (second compound 1 µM, first compound 0.00316 µM) 78.1% | viability, T/C (second compound 1 µM, first compound 0.01 µM) 87.5% | viability, T/C [5] 70.7% | viability, T/C [6] 97% | viability, T/C (second compound 3.16 µM, first compound 0.000316 µM) 83% | viability, T/C (second compound 3.16 µM, first compound 0.001 µM) 85.7% | viability, T/C (second compound 3.16 µM, first compound 0.00316 µM) 83.6% | viability, T/C (second compound 3.16 µM, first compound 0.01 µM) 81.6% | viability, T/C [7] 76.1% | viability, T/C [8] 79.1% | viability, T/C (second compound 10 µM, first compound 0.000316 µM) 75.7% | viability, T/C (second compound 10 µM, first compound 0.001 µM) 73.4% | viability, T/C (second compound 10 µM, first compound 0.00316 µM) 73.4% | viability, T/C (second compound 10 µM, first compound 0.01 µM) 80.9% | viability, T/C [9] 65.1% | viability, T/C [10] 68.5%

NS(=O)(=O)OCC1CC(n2ccc3c(NC4CCc5ccccc54)ncnc32)CC1O (stereo not given) + NC1CCC(NC2CC2c2ccccc2)CC1
0.0888 µM: IC50 (second compound 0.316 µM)
0.0475 µM: IC50 (second compound 1 µM)
inactive: viability, T/C [11] 106% | viability, T/C [12] 95.7% | viability, T/C [13] 55.9% | viability, T/C [14] 9.71% | viability, T/C [17] 90.8% | viability, T/C [18] 70% | viability, T/C [19] 53.4% | viability, T/C [20] 9.15% | viability, T/C [23] 90.7% | viability, T/C [24] 55.9% | viability, T/C [25] 43.2% | viability, T/C [26] 12% | viability, T/C [27] 11.3% | viability, T/C [29] 102% | viability, T/C [30] 62.9% | viability, T/C [31] 34.5% | viability, T/C [32] 10.7% | viability, T/C [35] 89.9% | viability, T/C [36] 66.2% | viability, T/C [37] 33.4% | viability, T/C [38] 19%
0.0496 µM: IC50 (second compound 3.16 µM)
active: viability, T/C [15] 11.5% | viability, T/C [16] 9.68% | viability, T/C [21] 6.44% | viability, T/C [22] 7.69% | viability, T/C [28] 6.96% | viability, T/C [33] 7.04% | viability, T/C [34] 1.91% | viability, T/C [39] 5.43% | viability, T/C [40] 3.7%
0.108 µM: IC50 (second compound 0.1 µM)
0.0541 µM: IC50 (second compound 10 µM)

Nc1ncn(C2CC(O)C(CO)S2)c(=O)n1 (stereo not given) + NC1CCC(NC2CC2c2ccccc2)CC1
inactive: viability, T/C (second compound 0.1 µM, first compound 0.000949 µM) 110% | viability, T/C (second compound 0.1 µM, first compound 0.003 µM) 85.6% | viability, T/C [11] 113% | viability, T/C [12] 88.1% | viability, T/C [13] 61.4% | viability, T/C [14] 13.1% | viability, T/C (second compound 0.316 µM, first compound 0.000949 µM) 113% | viability, T/C (second compound 0.316 µM, first compound 0.003 µM) 107% | viability, T/C [17] 117% | viability, T/C [18] 93.9% | viability, T/C [19] 39.7% | viability, T/C [20] 11.6% | viability, T/C (second compound 1 µM, first compound 0.000949 µM) 94.3% | viability, T/C (second compound 1 µM, first compound 0.003 µM) 88.6% | viability, T/C [23] 91.2% | viability, T/C [24] 76.8% | viability, T/C [25] 28.6% | viability, T/C [26] 27.4% | viability, T/C (second compound 3.16 µM, first compound 0.000949 µM) 97.4% | viability, T/C (second compound 3.16 µM, first compound 0.003 µM) 99.9% | viability, T/C [29] 92% | viability, T/C [30] 89% | viability, T/C [31] 39.2% | viability, T/C [32] 24.9% | viability, T/C (second compound 10 µM, first compound 0.000949 µM) 86.6% | viability, T/C (second compound 10 µM, first compound 0.003 µM) 82.4% | viability, T/C [35] 86.8% | viability, T/C [36] 82.8% | viability, T/C [37] 32.1% | viability, T/C [38] 23.6%
0.0632 µM: IC50 (second compound 10 µM)
0.0761 µM: IC50 (second compound 0.316 µM)
0.123 µM: IC50 (second compound 0.1 µM)
0.0739 µM: IC50 (second compound 3.16 µM)
0.0569 µM: IC50 (second compound 1 µM)
